Test results taken from patent US20150353495A1 (PORTOLA PHARMACEUTICALS, INC., priority 2010, published 2015).

Tests used:
[1] = target: T1, full length active recombinant SYK enzyme (Homo sapiens, UniProt P43405); assay: Inhibition of Syk tyrosine phosphorylation activity (LANCE TR-FRET); assay type: biochemical
T1 construct: full length active recombinant SYK enzyme (Millipore, Calif.); purchased Millipore
From the text: This example illustrates methods for evaluating the compounds of the invention, along with results obtained for such assays. The in vitro and in vivo human Syk activities of the inventive compounds can be determined by various procedures known in the art, such as a test for their ability to inhibit the activity of human plasma Syk. […] The IC50 value is the concentration (in nM) of the compound required to provide 50% inhibition of human Syk proteolytic activity.
An in vitro assay for detecting and measuring inhibition activity against Syk is as follows:
Inhibition of Syk Tyrosine Phosphorylation Activity
Potency of candidate molecules for inhibiting Syk tyrosine phosphorylation activity is assessed by measuring the ability of a test compound to inhibit Syk-mediated tyrosine phosphorylation of a Syk-specific substrate.
SYK tyrosine phosphorylation activity is measured using the LANCE™ Technology developed by Perkin Elmer Life and Analytical Sciences (Boston, Mass.). LANCE™ refers to homogeneous time resolved fluorometry applications using techniques such as time-resolved fluorescence resonance energy transfer assay (TR-FRET) (see generally for procedures in Perkin Elmer Application Note-How to Optimize a Tyrosine Kinase Assay Using Time Resolved Fluorescence-Based LANCE Detection, wwww.perkinelmer.com/lifesciences). The assay principle involves detection of a phosphorylated substrate using energy transfer from a phosphospecific europium-labeled antibody to streptavidin-allophycocyanin as an acceptor.
To test the ability of candidate molecules to inhibit SYK tyrosine phosphorylation activity, molecules are reconstituted in 30% DMSO and serially diluted 1:3 with the final dilution containing DMSO in the absence of the candidate molecule. The final DMSO concentration in the assay is 3%. Kinase assays are performed as a two part reaction. The first reaction is a kinase reaction and which comprises of a candidate molecule, full length active recombinant SYK enzyme (Millipore, Calif.) and biotin-labeled SYK-specific substrate biotin-[…]-OH. The second reaction involves termination of the kinase reaction and the simultaneous addition of the detection reagents-europium-labeled anti-phosphotyrosine reagent (Eu-W1024-PY100, Perkin Elmer, Boston, Mass.) and Streptavidin-Allophycocyanin detection reagent (SA-APC, Prozyme, CA). The kinase reaction is performed in a black U-bottom 96-well microtitre plate. The final reaction volume is 50 μL and contains a final concentration of 1 nM active SYK enzyme, 550 nM SYK-substrate, and 100 nM ATP diluted in a buffer containing 50 mM Tris pH 7.5, 5 mM MgCl2, and 1 mM DTT. The reaction is allowed to proceed for 1 hour at room temperature. The quench buffer contains 100 mM Tris pH 7.5, 300 mM NaCl2, 20 mM EDTA, 0.02% Brij35, and 0.5% BSA. The detection reagents are added to the reaction mixture at the following dilutions-1:500 for Eu-W1024-PY100 and 1:250 for SA-APC. The kinase reaction is terminated by the addition of 50 μL quench buffer containing the detection reagents. […] Detection of the phosphorlated substrate in the absence and presence of inhibitors is measured in the TR-FRET instrument, Analyst HT (Molecular Probes, Sunnyvale, Calif.) and the condition for measurements are set up using CriterionHost Release 2.0 (Molecular Probes, Sunnyvale, Calif.). […] Inhibition of SYK-tyrosine kinase activity is calculated as the maximum response observed in the presence of inhibitor, compared to that in the absence of inhibitor. […]

TYK2 = target: T2, TYK2 (Homo sapiens, UniProt P29597); assay: Z'-LYTE kinase assay TYK2; assay type: biochemical
T2 construct: 5 μl of catalytic domain recombinant Kinase enzyme+Tyr peptide substrate (Invitrogen, CA); purchased Invitrogen
T2 sequence (P29597 897-1176 limits assumed): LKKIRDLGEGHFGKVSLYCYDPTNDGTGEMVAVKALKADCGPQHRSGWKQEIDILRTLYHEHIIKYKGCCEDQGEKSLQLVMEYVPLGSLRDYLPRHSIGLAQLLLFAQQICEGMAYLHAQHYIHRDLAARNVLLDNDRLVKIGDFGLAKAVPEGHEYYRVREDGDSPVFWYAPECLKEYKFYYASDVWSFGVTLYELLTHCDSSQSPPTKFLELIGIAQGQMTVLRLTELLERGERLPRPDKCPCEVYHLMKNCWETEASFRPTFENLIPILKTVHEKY
Outline: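 IC50 derived by 4-parameter logistic fit of percent substrate phosphorylation relative to uninhibited wells. Tyr6 peptide phosphorylated by recombinant TYK2 catalytic domain for 1 h at room temperature (1% DMSO), cleaved by development protease 1 h, FRET emission ratio 445/520 nm.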

IC50 [1]	IC50 (TYK2)	Compound
> 1000 nM	100 to 1000 nM	CC(=O)N1CCN(c2ccc(Nc3cc(NC4CC4)c(C(N)=O)cn3)cc2)CC1 [Example 2]
> 1000 nM	100 to 1000 nM	CC(=O)N1CCN(c2ccc(Nc3cc(NCc4cccc(F)c4)c(C(N)=O)cn3)cc2)CC1 [Example 229]
